The text below walks through data of patent US20260355196A1, “INHIBITORS AND DEGRADERS OF PIP4K PROTEIN” (Larkspur Biosciences, Inc., priority 2023, published 2026).

Bounds are passed on as bounds.

One assay deals with T1, PIP4K2C (Homo sapiens, UniProt Q8TBX8).
T1 sequence (Q8TBX8 1-421): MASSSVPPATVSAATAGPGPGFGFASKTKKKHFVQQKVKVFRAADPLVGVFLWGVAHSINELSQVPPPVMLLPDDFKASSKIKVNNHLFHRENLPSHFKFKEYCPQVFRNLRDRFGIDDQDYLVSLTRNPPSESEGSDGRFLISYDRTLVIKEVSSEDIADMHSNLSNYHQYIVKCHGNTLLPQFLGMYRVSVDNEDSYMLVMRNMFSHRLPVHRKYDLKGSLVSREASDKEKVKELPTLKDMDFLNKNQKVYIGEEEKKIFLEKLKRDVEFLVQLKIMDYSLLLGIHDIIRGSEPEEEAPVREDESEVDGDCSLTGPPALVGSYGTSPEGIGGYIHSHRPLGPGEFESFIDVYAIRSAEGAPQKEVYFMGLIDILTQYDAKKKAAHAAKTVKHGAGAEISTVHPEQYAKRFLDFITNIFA
Briefly: HiBiT PIP4K2C degradation assay in MOLT-4 cells (endogenous PIP4K2C C-terminally tagged with HiBiT). Also noted: untagged in primary human PBMCs and monocyte-derived dendritic cells. Format: cell-based. The settings on record: 6 hours of incubation time, rather than 24 hours; MOLT-4, top concentration 10 micromolar; read-out: HiBIT-degradation MOLT4 PIP4k2C DC50 (6 hours, marked *). The text has this: Example B-2: HiBiT PIP4K2C degradation assay
Materials: MOLT-4, a human T lymphoblast cell line (see https://www.atcc.org/products/crl-1582, herein incorporated by reference in its entirety), was genetically engineered using CRISPR-Cas9 by Synthego Corporation (Redwood City, CA) to C-terminally tag endogenous PIP4K2C with HiBiT peptide. Following clonal selection, genotype was confirmed by Sanger sequencing. MO LT-4 were maintained using RPMI-1640 medium from Gibco (Grand Island, NY, catalog number 11875-085) supplemented with 10% fetal bovine serum (FBS) from VWR (Philadelphia, PA, catalog number 97068-085). For HiBiT assays the cells were resuspended in RPMI-1640 medium without phenol read from Gibco (Grand Island, NY, catalog number 11835-030) supplemented with 10% FBS. Nano-Glo® HiBiT Lytic Assay System was purchased from Promega (Madison, WI, Catalog number N3030). Cell culture flasks and 384-well microplates were purchased from Corning (Glendale, AZ).
To study PIP4K2C degradation, 384-well plates were plated with a 10-point dose response curve, 3-fold dilution, in duplicate with a top starting concentration of 10 micromolar. Subsequently 22,500 cells were added to each well and incubated at 37 C in 5% C02 for 24 hours or 6 hours. At the end of the incubation time, cells were treated with the Nano-Glo® HiBiT Lytic Detection System following the manufacturer's instructions. Luminescence was measured with a PHERAstar FSX plate reader (BMG Labtech, Cary, NC). The Levenberg-Marquardt algorithm was used to fit a Hill equation to dose-response data to calculate DC50 values (see Table 6).
A general note: HiBiT is a short tag that completes a luciferase, so light tracks the accessible tagged protein.
One may read the DC50 as the concentration giving 50% degradation. For the molecule `O=C1CCC(Nc2ccc(C3CCN(CC4CCN(C(=O)[C@H]5CC[C@H](Nc6ncc(F)c(-c7cccc(-n8ccccc8=O)c7)n6)CC5)CC4)CC3(F)F)c(F)c2)C(=O)N1` (stereo partly drawn) [Compound 390, trans-3-[4-[3,3-difluoro-1-[[1-[4-[[5-fluoro-4-[3-(2-oxo-1-pyridyl)phenyl]pyrimidin-2-yl]amino]cyclohexanecarbonyl]-4-piperidyl]methyl]-4-piperidyl]-3-fluoro-anilino]piperidine-2,6-dione], the DC50 is under 500 nM.

On to `O=C1CCC(Nc2ccc(C3CCN(CC4CCN(C(=O)[C@H]5CC[C@H](Nc6ncc(F)c(-c7cccc(C(=O)N8CC[C@H](O)C8)c7)n6)CC5)CC4)CC3)c(F)c2)C(=O)N1` (stereo partly drawn) [Compound 468, trans-3-((3-fluoro-4-(1-((1-(4-((5-fluoro-4-(3-((S)-3-hydroxypyrrolidine-1-carbonyl)phenyl)pyrimidin-2-yl)amino)cyclohexane-1-carbonyl)piperidin-4-yl)methyl)piperidin-4-yl)phenyl)amino)piperidine-2,6-dione], for which the DC50 is under 500 nM.

`Cn1nc(N2CCC(=O)NC2=O)c2cc(F)c(C3CCN([C@H]4CC[C@H](C(=O)N[C@H]5CC[C@H](Nc6ncc(F)c(-c7cccc(-n8ccccc8=O)c7)n6)CC5)CC4)CC3)cc21` [Compound 512, trans-4-(4-(3-(2,4-dioxotetrahydropyrimidin-1(2H)-yl)-5-fluoro-1-methyl-1H-indazol-6-yl)piperidin-1-yl)-N-(trans-4-((5-fluoro-4-(3-(2-oxopyridin-1(2H)-yl)phenyl)pyrimidin-2-yl)amino)cyclohexyl)cyclohexane-1-carboxamide]: the half-maximal degradation concentration (DC50) is under 500 nM.

Consider `Cn1nc(C2CCC(=O)NC2=O)c2ccc(N3CCN(CC4CCN(C(=O)[C@H]5CC[C@H](Nc6ncc(F)c(-c7cccc(-c8ccc[nH]c8=O)c7)n6)CC5)CC4)CC3)cc21` (stereo partly drawn) [Compound 417, 3-(6-(4-((1-(trans-4-((5-fluoro-4-(3-(2-oxo-1,2-dihydropyridin-3-yl)phenyl)pyrimidin-2-yl)amino)cyclohexane-1-carbonyl)piperidin-4-yl)methyl)piperazin-1-yl)-1-methyl-1H-indazol-3-yl)piperidine-2,6-dione], for which the DC50 is under 500 nM.

In the case of `O=C1CC[C@@H](Nc2ccc(C3CCN([C@H]4CC[C@H](C(=O)N[C@H]5CC[C@H](Nc6ncc(F)c(-c7cccc(N8CCCCC8=O)c7)n6)CC5)CC4)CC3)c(F)c2)C(=O)N1` (single isomer, unassigned) [Compound 593], the 50% degradation concentration (DC50) was under 500 nM.

For the molecule `O=C1CC[C@H](Nc2ccc(N3CCN([C@H]4CC[C@H](NC(=O)[C@H]5CC[C@H](Nc6ncc(F)c(-c7cccc(-c8ccc[nH]c8=O)c7)n6)CC5)CC4)CC3)c(F)c2)C(=O)N1` (single isomer, unassigned) [Compound 441], the DC50 was under 500 nM.

On to `O=C1CCC(Nc2ccc(N3CCN(C[C@H]4CC[C@H](CNC(=O)[C@H]5CC[C@H](Nc6ncc(F)c(-c7cccc(N8CCCCC8=O)c7)n6)CC5)CC4)CC3)c(F)c2)C(=O)N1` (stereo partly drawn) [Compound 590, trans-(1r,4R)—N-(((1r,4R)-4-((4-(4-((2,6-dioxopiperidin-3-yl)amino)-2-fluorophenyl)piperazin-1-yl)methyl)cyclohexyl)methyl)-4-((5-fluoro-4-(3-(2-oxopiperidin-1-yl)phenyl)pyrimidin-2-yl)amino)cyclohexane-1-carboxamide], for which the DC50 is under 500 nM.

With `O=C1CC[C@@H](Nc2ccc(C3CCN([C@H]4CC[C@H](C(=O)N[C@H]5CC[C@H](Nc6ncc(F)c(-c7cccc(-n8ccccc8=O)c7)n6)CC5)CC4)CC3)c(F)c2)C(=O)N1` [Compound 706, (1R,4R)-4-(4-(4-(((R)-2,6-dioxopiperidin-3-yl)amino)-2-fluorophenyl)piperidin-1-yl)-N-((1r,4R)-4-((5-fluoro-4-(3-(2-oxopyridin-1(2H)-yl)phenyl)pyrimidin-2-yl)amino)cyclohexyl)cyclohexane-1-carboxamide], the DC50 is under 500 nM.

Regarding `O=C1CCC(Nc2ccc(N3CCN(CC4(F)CCN(C(=O)[C@H]5CC[C@H](Nc6ncc(F)c(-c7cccc(N8CCCCC8)c7)n6)CC5)CC4)CC3)c(F)c2)C(=O)N1` (stereo partly drawn) [Compound 491, trans-3-((3-fluoro-4-(4-((4-fluoro-1-(4-((5-fluoro-4-(3-(piperidin-1-yl)phenyl)pyrimidin-2-yl)amino)cyclohexane-1-carbonyl)piperidin-4-yl)methyl)piperazin-1-yl)phenyl)amino)piperidine-2,6-dione], the 50% degradation concentration (DC50) was under 500 nM.

Turning to `O=C1CCC(Nc2ccc(N3CCN([C@H]4CC[C@H](C(=O)N[C@H]5CC[C@H](Nc6ncc(Cl)c(-c7cccc(-n8ccccc8=O)c7)n6)CC5)CC4)CC3)c(F)c2)C(=O)N1` (stereo partly drawn) [Compound 632, trans-(1r,4R)—N-((1r,4R)-4-((5-chloro-4-(3-(2-oxopyridin-1 (2H)-yl)phenyl)pyrimidin-2-yl)amino)cyclohexyl)-4-(4-(4-((2,6-dioxopiperidin-3-yl)amino)-2-fluorophenyl)piperazin-1-yl)cyclohexane-1-carboxamide], the DC50 is under 500 nM.

Turning to `O=C1CCC(Nc2ccc(N3CCC(N4CCC(C(=O)N[C@H]5CC[C@H](Nc6ncc(F)c(-c7cccc(N8CCOCC8)c7)n6)CC5)CC4)C(F)C3)c(F)c2)C(=O)N1` (stereo partly shown) [Compound 655, 1′-(4-((2,6-dioxopiperidin-3-yl)amino)-2-fluorophenyl)-3′-fluoro-N-((1r,4r)-4-((5-fluoro-4-(3-morpholinophenyl)pyrimidin-2-yl)amino)cyclohexyl)-[1,4′-bipiperidine]-4-carboxamide], the half-maximal degradation concentration (DC50) was under 500 nM.

As for `O=C1CCC(Nc2ccc(C3CCN(CC4(O)CCN(C(=O)[C@H]5CC[C@H](Nc6ncc(F)c(-c7cccc(-c8ccccc8)c7)n6)CC5)CC4)CC3)c(F)c2)C(=O)N1` (stereo partly drawn) [Compound 464, 3-((4-(1-((1-(trans-4-((4-([1,1′-biphenyl]-3-yl)-5-fluoropyrimidin-2-yl)amino)cyclohexane-1-carbonyl)-4-hydroxypiperidin-4-yl)methyl)piperidin-4-yl)-3-fluorophenyl)amino)piperidine-2,6-dione], the DC50 is under 500 nM.

Turning to `O=C1CCC(Nc2ccc(C3CCN(CC4(O)CCN(C(=O)[C@H]5CC[C@H](Nc6ncc(F)c(-c7cccc(N8CCOCC8=O)c7)n6)CC5)CC4)CC3)c(F)c2)C(=O)N1` (stereo partly drawn) [Compound 578, trans-3-((3-fluoro-4-(1-((1-(4-((5-fluoro-4-(3-(3-oxomorpholino)phenyl)pyrimidin-2-yl)amino)cyclohexane-1-carbonyl)-4-hydroxypiperidin-4-yl)methyl)piperidin-4-yl)phenyl)amino)piperidine-2,6-dione], the DC50 was under 500 nM.

For the molecule `O=C1CCC(Nc2ccc(N3CCN(CC4(O)CCN(C(=O)[C@H]5CC[C@H](Nc6ncc(F)c(-c7cccc(-c8ccccc8)c7)n6)CC5)CC4)CC3)c(F)c2)C(=O)N1` (stereo partly drawn) [Compound 463, trans-3-[3-fluoro-4-[4-[[1-[4-[[5-fluoro-4-(3-phenylphenyl)pyrimidin-2-yl]amino]cyclohexanecarbonyl]-4-hydroxy-4-piperidyl]methyl]piperazin-1-yl]anilino]piperidine-2,6-dione], the DC50 was under 500 nM.

The assay is the same for the next values; noted with them: 24 hours incubation, MOLT-4, top concentration 10 micromolar; read-out: HiBIT-degradation MOLT4 PIP4k2C 24 hours DC50.
Take `Cn1c(=O)n(C2CCC(=O)NC2=O)c2ccc(C3CCN(C4CCN(CCC(=O)N5CCC(Nc6ncc(Cl)c(-c7cccc(-c8ccc(F)cc8)c7)n6)CC5)CC4)CC3)cc21` (stereo not shown) [Compound 300, 3-(5-(1′-(3-(4-((5-chloro-4-(4′-fluoro-[1,1′-biphenyl]-3-yl)pyrimidin-2-yl)amino)piperidin-1-yl)-3-oxopropyl)-[1,4′-bipiperidin]-4-yl)-3-methyl-2-oxo-2,3-dihydro-1H-benzo[d]imidazol-1-yl)piperidine-2,6-dione]: the DC50 is under 500 nM.

Take `O=C1CCC(n2c(=O)oc3cc(C4CCN(CCC5CCN(C(=O)[C@@H]6CCC[C@H](Nc7ncc(F)c(-c8cccc(N9CCCCC9=O)c8)n7)C6)CC5)CC4)ccc32)C(=O)N1` (stereo partly drawn) [Compound 356, 3-(6-(1-(2-(1-((1R,3S)-3-((5-fluoro-4-(3-(2-oxopiperidin-1-yl)phenyl)pyrimidin-2-yl)amino)cyclohexane-1-carbonyl)piperidin-4-yl)ethyl)piperidin-4-yl)-2-oxobenzo[d]oxazol-3 (2H)-yl)piperidine-2,6-dione]: the 50% degradation concentration (DC50) is under 500 nM.
